# Measurements published in article PMC8041284, “Tunable Methacrylamides for Covalent Ligand Directed Release Chemistry” (Journal of the American Chemical Society, 2021).
# Target: BTK (Homo sapiens, UniProt Q06187)
# Assay: biochemical
# Conditions: read-out: BTK inhibition (%)
# Chain of BTK (Q06187 402-655 limits assumed): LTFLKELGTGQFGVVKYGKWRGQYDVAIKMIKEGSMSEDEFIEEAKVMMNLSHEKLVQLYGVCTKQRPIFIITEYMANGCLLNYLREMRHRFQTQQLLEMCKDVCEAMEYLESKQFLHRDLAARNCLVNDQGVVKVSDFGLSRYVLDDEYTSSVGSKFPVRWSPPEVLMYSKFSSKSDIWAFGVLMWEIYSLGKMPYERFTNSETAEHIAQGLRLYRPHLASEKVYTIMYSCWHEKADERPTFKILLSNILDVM
row,Structure (SMILES),inhibition at 10 µM
1,COc1cc(Br)c(Nc2nc(-c3c(C)nc4ncccn34)cs2)c(Br)c1 [PCM-0095777],34%
2,CC(C(=O)O)C(=O)O [PCM-0214910],-6.2%

# Same assay, conditions: read-out: BTK inhibition (%), 0.75 uM BTK, […] probe 3l, 15 min preincubation
row,Structure (SMILES),inhibition at 10 µM
1,C[C@H](NC(=O)Cc1cc(F)cc(F)c1)C(=O)N[C@@H]1C(=O)N(C)c2ccccc2-c2ccccc21 [PCM-0095414],4.8%
2,N[C@@H](CSCCB(O)O)C(=O)O [PCM-0215605],-5.4%
3,COc1cc(O)cc2c1C(=O)C[C@@H](c1ccccc1)O2 [PCM-0214998],-12.5%
4,Cc1c(C)c(NCC(=O)N(C)C2CCN(Cc3ccc(C(N)=O)cc3)CC2)c(C)c(C)c1N [PCM-0215800],12.4%
5,CN(C)C(=S)NN=C(c1ccccn1)c1ccccn1 [PCM-0215522],20.1%
6,COc1ccc([C@@H]2OC[C@H]3[C@@H]2CO[C@@H]3c2ccc(O[C@@H]3O[C@H](CO)[C@@H](O)[C@H](O)[C@H]3O)c(OC)c2)cc1OC [PCM-0215021],-6.2%
7,O=c1cc(-c2ccc(O[C@@H]3O[C@H](CO)[C@@H](O)[C@H](O)[C@H]3O)cc2)oc2cc(O)c([C@@H]3O[C@H](CO)[C@@H](O)[C@H](O)[C@H]3O[C@@H]3OC[C@H](O)[C@H](O)[C@H]3O)c(O)c12 [PCM-0216482],-22.4%
8,Cc1ccc(Cl)c(Nc2ccccc2C(=O)O)c1Cl [PCM-0214800],9.7%
9,COc1ccc2c(O[C@@H]3C[C@H]4C(=O)N[C@]5(C(=O)NS(=O)(=O)C6CC6)C[C@H]5/C=C\CCCCN(C)C(=O)[C@@H]4C3)cc(-c3nc(C(C)C)cs3)nc2c1C [PCM-0215097],55.6%
10,O=C(O)CC(C(=O)O)n1c(O)c(C2=c3cc(Br)ccc3=NC2=O)sc1=S (stereo not shown) [PCM-0216114],3.1%
11,CCC[C@H](N[C@@H](C)C(=O)N1[C@H](C(=O)O)C[C@@H]2CCCC[C@@H]21)C(=O)OCC [PCM-0095182],-4.3%
12,O=C[C@H](O)[C@H]1OC(=O)[C@@H](O)[C@H]1O [PCM-0215140],-1.4%
13,C=CC(=O)N1CCC[C@H](n2c(=O)n(-c3ccc(Oc4ccccc4)cc3)c3c(N)ncnc32)C1 [PCM-0215519],97.2%
14,O=C(O)c1cc(O)c2c(c1)[C@@H]([C@H]1c3cc(C(=O)O)cc(O)c3C(=O)c3c(O[C@@H]4O[C@H](CO)[C@@H](O)[C@H](O)[C@H]4O)cccc31)c1cccc(O[C@@H]3O[C@H](CO)[C@@H](O)[C@H](O)[C@H]3O)c1C2=O [PCM-0086913],84.1%
15,CN(C)CCC=C1c2ccccc2CCc2ccccc21 [PCM-0064521],-22.6%
16,CCN1CCN(c2cc3c(cc2F)c(=O)c(C(=O)O)cn3C2CC2)CC1 [PCM-0090392],-11.9%
17,CCOC(=O)C1=C(COCCN)NC(C)=C(C(=O)OC)[C@@H]1c1ccccc1Cl [PCM-0214889],-11.7%
18,COC1=C2C[C@@H](C)C[C@H](OC)[C@H](O)[C@@H](C)/C=C(\C)[C@H](OC(N)=O)[C@@H](OC)/C=C\C=C(/C)C(=O)NC(=CC1=O)C2=O [PCM-0095416],0%
19,O=C(O)/C=C/C(=O)O [PCM-0064603],-7.7%
20,COC(=O)[C@H](CC(C)C)NC(=O)c1ccc(NC[C@@H](N)CS)cc1-c1cccc2ccccc12 [PCM-0215717],-79.5%
21,O=C[C@H](O)[C@@H](O)[C@H](O[C@H]1O[C@H](CO)[C@@H](O[C@H]2O[C@H](CO)[C@@H](O[C@H]3O[C@H](CO)[C@@H](O)[C@H](O)[C@H]3O)[C@H](O)[C@H]2O)[C@H](O)[C@H]1O)[C@H](O)CO [PCM-0216456],0.8%
22,CC(C)(C#N)c1cc(Cn2cncn2)cc(C(C)(C)C#N)c1 [PCM-0086178],-11%
23,O=C1C(c2[nH]c3ccccc3c2O)=Nc2ccccc21 [PCM-0215050],28.8%
24,O=C(NC1CC1)c1cc(-c2cccs2)on1 [PCM-0215520],-2.3%
25,CCCCC(CC)COC(=O)C(C#N)=C(c1ccccc1)c1ccccc1 (stereo not shown) [PCM-0215898],0%

row,Structure (SMILES),inhibition at 10 µM
1,CCN(CC)CCOC(=O)c1ccc(N)cc1Cl [PCM-0214797],-1.6%
2,Cc1cc(=O)oc2c(C=O)c(O)ccc12 [PCM-0215276],82.6%
3,CC1(C)CC[C@]2(C(=O)O)CCC3=C(CC[C@@H]4[C@@]5(C)C[C@H](O)[C@H](O)[C@@](C)(C(=O)O)[C@@H]5CC[C@@]34C)[C@@H]2C1 [PCM-0216490],10.8%
4,O=c1[nH]c(=O)c2[nH]cnc2[nH]1 [PCM-0214891],-10.9%
5,C[C@H](NC(=O)C(=O)Nc1ccccc1C(C)(C)C)C(=O)N[C@@H](CC(=O)O)C(=O)COc1c(F)c(F)cc(F)c1F [PCM-0215672],-17.9%
6,CC(C)Oc1ccc2c(=O)c(-c3ccccc3)coc2c1 [PCM-0094837],17.9%
7,COc1ccc2cccc(CCNC(C)=O)c2c1 [PCM-0065343],-16.3%
8,COC(=O)C[C@](O)(CCCC(C)(C)O)C(=O)O[C@@H]1C(OC)=C[C@]23CCCN2CCc2cc4c(cc2[C@H]13)OCO4 [PCM-0216341],4.6%
9,CC(=O)c1cc(O)ccc1O [PCM-0216293],-1.5%
10,C[C@@H]1O[C@@H](O[C@H]2[C@H](Oc3c(-c4ccc(O)cc4)oc4cc(O)cc(O)c4c3=O)O[C@H](CO)[C@@H](O)[C@@H]2O)[C@H](O)[C@H](O)[C@H]1O [PCM-0216179],-1.7%
11,CCCC[C@@H](C=O)NC(=O)[C@H](CC(C)C)NC(=O)OCc1ccccc1 [PCM-0215437],-4.6%
12,CCOC(=O)CCNc1cc(N2CCc3ccccc3CC2)nc(-c2ccccn2)n1 [PCM-0095581],-0.8%
13,O=C(O)c1cc(N=Nc2ccc(S(=O)(=O)Nc3ccccn3)cc2)ccc1O [PCM-0214740],48.3%
14,C=CCc1ccc(O)c(-c2ccc(O)c(CC=C)c2)c1 [PCM-0094855],37.9%
15,CCCCCC1=C(C)CCC1=O [PCM-0216102],-16.2%
16,CC[C@H]1[C@@H](O)[C@@H]2[C@H](CC[C@]3(C)[C@@H]([C@H](C)CCC(=O)O)CC[C@@H]23)[C@@]2(C)CC[C@@H](O)C[C@@H]12 [PCM-0215390],2.3%
17,CCc1cc2c(cc1CC)CC(NC[C@H](O)c1ccc(O)c3[nH]c(=O)ccc13)C2 [PCM-0095564],19.5%
18,O=C(N[C@@H](c1ccccc1)[C@@H](O)C(=O)O)c1ccccc1 [PCM-0216301],9.3%
19,O=C1c2c(O)ccc(O)c2C(=O)c2c(NCCNCCO)ccc(NCCNCCO)c21 [PCM-0065547],51%
20,CCOc1ccccc1-n1c(C(C)N2CCN(C(=O)COc3ccc(Cl)cc3)CC2)nc2ccccc2c1=O (stereo not shown) [PCM-0095811],15.4%
21,C[C@H](N=C(NC#N)Nc1cccc2ncccc12)c1ccccc1 [PCM-0216092],-13.1%
22,CC(COc1ccccc1)N(CCCl)Cc1ccccc1 (stereo not shown) [PCM-0086553],17.1%
23,Cc1ccc(NS(=O)(=O)c2ccc3c(c2)C2C=CCC2C(c2ccc(C(=O)O)cc2)N3)cc1C (stereo not shown) [PCM-0215738],92.7%
24,CC1=CCC2C(C1)C2(C)C (stereo not shown) [PCM-0216215],8.5%
25,O=C1CN2Cc3c(ccc(Cl)c3Cl)N=C2N1 [PCM-0090482],-15.2%

row,Structure (SMILES),inhibition at 10 µM
1,CN[C@@H]1[C@H](O)[C@H](NC)[C@H]2O[C@@]3(O)C(=O)C[C@@H](C)O[C@H]3O[C@@H]2[C@H]1O [PCM-0214688],2.3%
2,CC(C)c1c(-c2ccccc2)nc2c(C#N)c[nH]n2c1=O [PCM-0215735],24.7%
3,Cn1cc(C(=O)[C@@H]2CCc3nc[nH]c3C2)c2ccccc21 [PCM-0214919],-3.1%
4,COc1ccc([C@@H]2CC(=O)c3c(O)cc(O[C@@H]4O[C@H](CO[C@@H]5O[C@@H](C)[C@H](O)[C@@H](O)[C@H]5O)[C@@H](O)[C@H](O)[C@H]4O)cc3O2)cc1O [PCM-0214677],-7%
5,NC(=O)N1c2ccccc2CC(=O)c2ccccc21 [PCM-0086055],-10.1%
6,O=C(O)C[C@H](O)C[C@H](O)/C=C/c1c(C2CC2)nc2ccccc2c1-c1ccc(F)cc1 [PCM-0095199],-36.6%
7,CC(=O)O[C@@]12CO[C@@H]1C[C@H](O)[C@@]1(C)C(=O)[C@H](O)C3=C(C)[C@@H](O)C[C@@](O)([C@@H](OC(=O)c4ccccc4)[C@H]21)C3(C)C [PCM-0095302],9.3%
8,COc1cc(C(=O)NS(=O)(=O)c2ccccc2C)ccc1Cc1cn(C)c2ccc(NC(=O)OC3CCCC3)cc12 [PCM-0086066],47.6%
9,CNCc1ccc(-c2[nH]c3cc(F)cc4c3c2CCNC4=O)cc1 [PCM-0095075],18.6%
10,NC(=O)c1cccc(N)c1 [PCM-0064562],-3.9%
11,COC(=O)C1=C(C#N)NC(C)=C(C(=O)OC(C)C)C1c1cccc([N+](=O)[O-])c1 (stereo not shown) [PCM-0086361],14.8%
12,O=C(O)[C@H](O)c1ccccc1 [PCM-0216338],-10%
13,O=C(CNc1ccc2ccccc2c1)N/N=C/c1cc(Br)c(O)c(Br)c1O [PCM-0215592],47.9%
14,Cc1cc(C)n(C)n1 [PCM-0215908],-6.9%
15,C/C(=C(\CCOC(=O)c1ccccc1)SC(=O)c1ccccc1)N(C=O)Cc1cnc(C)nc1N [PCM-0216084],4.6%
16,C[N+](C)(C)NCCC(=O)[O-] [PCM-0215179],-8.5%
17,N#CC(=C(/N)Sc1ccccc1N)/C(C#N)=C(\N)Sc1ccccc1N [PCM-0064783],-4.1%
18,COc1cc(/C=C/C(=O)N2CCN(CC(=O)N3CCCC3)CC2)cc(OC)c1OC [PCM-0095532],0%
19,O=C(O)C1=C[C@@H](O)[C@@H](O)[C@H](O)C1 [PCM-0094809],10.1%
20,C[C@@H]1[C@H]2c3cc4c(cc3O[C@@]35OCOC3=CC(=O)[C@H](C[C@H]1C)[C@@H]25)OCO4 [PCM-0216310],33.2%
21,Nc1nc(NCCNc2ncc(-n3ccnc3)c(-c3ccc(Cl)cc3Cl)n2)ccc1[N+](=O)[O-] [PCM-0095481],20.7%
22,COc1cc2c(cc1Cc1cccc(Cl)c1F)c(=O)c(C(=O)O)cn2[C@H](CO)C(C)C [PCM-0095274],31.9%
23,OCc1c[nH]c2ccccc12 [PCM-0091140],-14%
24,COc1cc2ncnc(Sc3nnc(C)s3)c2cc1OC [PCM-0215288],5.5%
